Test [1] has as its target T1, Kir6.2*-GFP + SUR-K205A (Homo sapiens, UniProt Q14654).
T1 construct: ANAP labelling is specific and only full-length Kir6.2 is expressed at the cell membrane; expressed in transfected cells; host or cells: HEK-293T
The experiment in a line: Current inhibition in excised inside-out patches (patch-clamp fluorometry). The class given is biochemical. The settings on record: Mg2+-free, Hill fit. The text has this: (§1) We introduced a charge neutralization (alanine, K205A) and a charge reversal (glutamate, K205E) mutation at this position and measured simultaneous nucleotide binding and current inhibition with PCF (Figure 4B,C,D). The binding and inhibition curves for TNP-ATP almost perfectly overlaid for the SUR1-K205A mutant (Figure 4C). The same was also true for SUR1-K205E (Figure 4D). Data were fit with the MWC-type model as before. […] This was reflected by a decrease in the estimated KA for TNP-ATP, which correlated with the degree of conservation of the mutation, that is we observed a larger effect for the charge reversal compared to the charge neutralization mutation (Figure 4E). However, in addition to direct effects of K205 on nucleotide binding, we also observed a shift in D for both mutations (Figure 4E).
(§2) Currents were measured as described above.
(The patch-clamp technique gives a direct electrical read-out from membranes.)

Test [2] addresses T2, Kir6.2*-GFP + SUR-K205E (Homo sapiens, UniProt Q14654).
T2 construct: ANAP labelling is specific and only full-length Kir6.2 is expressed at the cell membrane; expressed in transfected cells; host or cells: HEK-293T
The test is described as above. The class given is biochemical. Particulars: Mg2+-free, Hill fit.
Description: as §1, §2

Test [3] has as its target Kir6.2*,C166S-GFP + SUR1 (Homo sapiens, UniProt Q14654, C166S). The experiment in a line: FRET (ANAP quenching) nucleotide binding in unroofed membranes. Set-up: ANAP labelling is specific and only full-length Kir6.2 is expressed at the cell membrane; expressed in transfected cells; host or cells: HEK-293T. The settings on record: Hill fit. The text has this:
To measure nucleotide binding, cells transfected with Kir6.2*-GFP + SUR1 were briefly sonicated, leaving behind unroofed plasma membrane fragments ([Heuser, 2000]; [Zagotta et al., 2016]; [Puljung et al., 2019]) containing ANAP-labelled KATP channels with the intracellular nucleotide-binding sites exposed to the bath solution. The sample was excited with a 385 nm LED and emitted fluorescence from the membrane fragments was passed through a spectrometer, allowing us to separate ANAP, GFP, and TNP-ATP fluorescence by peak wavelength (Figure 1E,F). As expected from FRET, increasing the concentration of TNP-ATP caused a decrement in the ANAP peak at 472 nm and a concomitant increase in the TNP-ATP peak at 561 nm (Figure 1F). We used the quenching of the ANAP peak as a direct measure of TNP-ATP binding as this signal was specific to KATP. In contrast, the peak TNP-ATP fluorescence may include contributions from both specific and non-specific nucleotide binding, as well as direct excitation of TNP-ATP in solution by the 385 nm excitation light. Due to the sharp cut-off of the GFP emission spectrum at shorter wavelengths, our measurements of peak ANAP fluorescence were unaffected by the presence of the GFP tag on Kir6.2.
Epifluorescence imaging and spectroscopy were performed using a Nikon Eclipse TE2000-U microscope with a 60x water immersion objective (Plan Apo VC, NA = 1.2, Nikon; Kingston upon Thames, UK) or a 100x oil immersion objective (Nikon, Apo TIRF, NA = 1.49). […] Fluorescence spectra were collected by exciting ANAP as above but using a 400 nm long-pass emission filter (ThorLabs), then passing emitted light through an IsoPlane 160 Spectrometer (Princeton Instruments; Trenton, NJ) with a 300 grooves mm^-1 grating. […]
Unroofed membranes were prepared as described previously ([Heuser, 2000]; [Zagotta et al., 2016]; [Puljung et al., 2019]). […] Unroofed membrane fragments were nearly invisible in bright-field images and identified by their GFP and ANAP fluorescence. […]
Fluorescence spectra were collected as described above. […]

For test [4], the target named is Kir6.2-GFP + SUR1 (Homo sapiens, UniProt Q14654). Description: Current inhibition in excised inside-out patches (patch-clamp fluorometry). The class given is biochemical. Set-up: full length, fully ANAP-labelled Kir6.2 protein was produced and successfully trafficked to the membrane in the presence of SUR1; expressed in transfected cells; host or cells: HEK-293T. The settings on record: excised inside-out patches, Mg2+-free, Hill fit. The method, then: Currents were measured from patches from cells expressing KATP that were excised in the absence of Mg^2+. Under such conditions, nucleotides can bind to both sites on SUR1, but no activation occurs, allowing inhibitory currents to be measured in isolation ([Gribble et al., 1998]; [Ueda et al., 1999]; [Puljung et al., 2019]).
Sequence of Kir6.2-GFP + SUR1 (Q14654 whole entry): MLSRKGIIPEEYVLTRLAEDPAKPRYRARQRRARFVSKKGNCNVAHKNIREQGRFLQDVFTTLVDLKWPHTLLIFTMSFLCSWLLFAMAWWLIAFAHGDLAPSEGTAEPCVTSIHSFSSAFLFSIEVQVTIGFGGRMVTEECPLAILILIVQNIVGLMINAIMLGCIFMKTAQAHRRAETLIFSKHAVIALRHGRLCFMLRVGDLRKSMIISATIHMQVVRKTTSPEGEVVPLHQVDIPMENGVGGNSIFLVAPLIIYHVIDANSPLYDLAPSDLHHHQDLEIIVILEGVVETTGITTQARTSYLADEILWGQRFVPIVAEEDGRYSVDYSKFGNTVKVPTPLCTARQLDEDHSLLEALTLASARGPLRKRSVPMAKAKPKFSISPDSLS
Sequence of Kir6.2-GFP + SUR1 (Q09428 whole entry partner): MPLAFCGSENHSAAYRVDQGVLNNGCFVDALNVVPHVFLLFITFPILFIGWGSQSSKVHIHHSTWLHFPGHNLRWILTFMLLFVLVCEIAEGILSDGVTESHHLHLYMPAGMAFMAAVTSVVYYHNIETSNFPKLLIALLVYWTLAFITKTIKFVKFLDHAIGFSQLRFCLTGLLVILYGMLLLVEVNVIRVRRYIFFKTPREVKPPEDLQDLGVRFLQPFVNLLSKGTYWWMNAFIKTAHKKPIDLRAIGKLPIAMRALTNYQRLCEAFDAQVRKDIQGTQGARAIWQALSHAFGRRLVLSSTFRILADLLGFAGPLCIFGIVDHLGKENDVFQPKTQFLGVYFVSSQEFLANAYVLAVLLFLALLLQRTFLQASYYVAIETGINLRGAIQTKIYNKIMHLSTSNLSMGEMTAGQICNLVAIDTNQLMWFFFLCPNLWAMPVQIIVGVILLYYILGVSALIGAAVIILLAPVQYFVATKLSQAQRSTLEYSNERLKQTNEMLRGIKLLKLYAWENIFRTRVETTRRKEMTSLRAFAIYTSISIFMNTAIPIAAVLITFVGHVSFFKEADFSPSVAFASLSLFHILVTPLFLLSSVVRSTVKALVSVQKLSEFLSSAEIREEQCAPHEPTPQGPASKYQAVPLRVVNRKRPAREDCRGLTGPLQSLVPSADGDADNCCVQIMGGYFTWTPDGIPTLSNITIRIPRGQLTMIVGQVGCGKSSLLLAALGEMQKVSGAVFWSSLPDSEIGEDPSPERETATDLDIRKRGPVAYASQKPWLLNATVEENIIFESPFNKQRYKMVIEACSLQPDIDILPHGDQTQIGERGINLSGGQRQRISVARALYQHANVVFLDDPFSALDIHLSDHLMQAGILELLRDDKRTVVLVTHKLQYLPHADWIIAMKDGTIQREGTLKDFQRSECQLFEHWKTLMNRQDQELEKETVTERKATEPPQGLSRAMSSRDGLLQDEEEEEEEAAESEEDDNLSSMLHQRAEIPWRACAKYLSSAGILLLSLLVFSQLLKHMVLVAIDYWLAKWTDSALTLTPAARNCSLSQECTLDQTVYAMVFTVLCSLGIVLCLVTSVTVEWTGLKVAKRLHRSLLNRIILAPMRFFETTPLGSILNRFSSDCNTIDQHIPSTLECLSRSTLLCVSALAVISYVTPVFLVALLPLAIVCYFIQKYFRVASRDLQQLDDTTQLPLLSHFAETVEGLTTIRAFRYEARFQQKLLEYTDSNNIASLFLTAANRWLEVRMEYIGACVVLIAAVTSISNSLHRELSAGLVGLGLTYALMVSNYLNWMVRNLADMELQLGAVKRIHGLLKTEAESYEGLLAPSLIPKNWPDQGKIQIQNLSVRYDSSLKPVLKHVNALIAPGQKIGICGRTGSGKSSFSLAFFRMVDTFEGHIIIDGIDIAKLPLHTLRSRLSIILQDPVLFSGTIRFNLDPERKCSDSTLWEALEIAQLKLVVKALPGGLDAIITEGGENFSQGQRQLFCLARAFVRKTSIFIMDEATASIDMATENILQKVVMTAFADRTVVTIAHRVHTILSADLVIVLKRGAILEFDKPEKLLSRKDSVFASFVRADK
as §2

Molecules are shown by their SMILES. pEC50, pIC50: −log10 of the molar value. Several values for one entry are separate records, joined by “and”; a condition that tells them apart may be missing. Identical values can stand only once.

Sequence of Kir6.2*,C166S-GFP + SUR1 (Q14654 whole entry C166S, the tested form may be a part): as the sequence (Q14654 whole entry) above, with C166S counted along it
Sequence of Kir6.2*,C166S-GFP + SUR1 (Q09428 whole entry partner, the tested form may be a part): as the sequence (Q09428 whole entry partner) above
T2 sequence (Q14654 whole entry, stated change not applied): as the sequence (Q14654 whole entry) above
T2 sequence (Q09428 whole entry K205E partner): as the sequence (Q09428 whole entry partner) above, with K205E counted along it
T1 sequence (Q14654 whole entry, stated change not applied): as the sequence (Q14654 whole entry) above
T1 sequence (Q09428 whole entry K205A partner): as the sequence (Q09428 whole entry partner) above, with K205A counted along it

As a reminder, the pIC50 is −log10 of the IC50, conventionally taken in molar units. Broadly, the Emax is the maximal effect, on the per cent scale that the assay sets. In general, pEC50 refers to −log10 of the EC50, conventionally taken in molar units. Regarding `Nc1ncnc2c1ncn2[C@@H]1O[C@H](COP(=O)(O)OP(=O)(O)OP(=O)(O)O)[C@H]2OC3(O[C@H]21)C([N+](=O)[O-])=CC(=[N+]([O-])[O-])C=C3[N+](=O)[O-]` (stereo partly drawn) [TNP-ATP, trinitrophenyl-ATP], the “h (Hill coefficient) current inhibition” value in test [1] amounted to 0.75; in test [2] it was 0.79; in test [4] it was 0.92. Moreover, the pIC50 in test [1] (n = 9) is 3.78; in test [2] (n = 9), 3.20; in test [4] (IC50 current inhibition), 5.21. Moreover, the “h (Hill coefficient) fluorescence quenching” value in test [3] came to 0.92. Also, the Emax in test [3] (fraction, read-out: Emax fluorescence quenching) worked out at 96%. The pEC50 in test [3] (n = 12, read-out: EC50 fluorescence quenching) was 4.49 and 4.50.

For the origin of these results see article PMC7004565, “Nucleotide inhibition of the pancreatic ATP-sensitive K^+ channel explored with patch-clamp fluorometry” (eLife, 2020).
